Legend:
[1] = test system: neuroblastoma (N1E115) cells; assay: Assay for inhibition of cell proliferation (MTT), neuroblastoma cells; assay type: cell-based, mouse; conditions: for IC50: neuroblastoma (N1E115) cells, MTT; for N1E115 Ratio (paclitaxel/compound): ratio of paclitaxel IC50 to compound IC50, N1E115 cells
Description: (§1) Human rabdomyosarcoma (RD) and mouse neuroblastoma (N1E115) cell lines were obtained from the American Type Culture Collection (ATCC, Rockville, Md.). The RD cells were grown in Dulbecco's modified eagle medium (DMEM) supplemented with 4 mM glutamine, containing 10% fetal bovine serum (ATCC #30-2020) and supplemented with 1% penicillin and 1% streptomycin. When confluent, the cells were maintained by passage (about once per week) until needed. The N1E115 line was also cultured in DMEM with 4 mM glutamine containing 10% newborn calf serum (Gibco, Grand Island, N.Y.) and likewise maintained.
(§2) The proliferation of rhabdomyosarcoma cells was determined using a cell proliferation assay kit based on the formation of insoluble formazan crystals from 3-(4,5-dimethylthiazol-2-yl)-2,5-diphenyltetrazolium bromide (MTT). The rhabdomyosarcoma cells were cultured to a density of 10^5 cells per mL. The cell culture (100 μL) was dispensed into wells of a 96-well plate to 10^4 cells per well. The plate was incubated at 37° C. for 3 h until the cells firmly attached to the well surfaces.
(§3) A second 96-well round bottom plate was made up containing the test compounds, serially diluted to cover the concentration range of interest using the DMEM medium plus antibiotics. The final concentration of DMSO in which the compounds were initially dissolved was maintained at a constant 0.5% in each well and the volume of the compounds in the plate was 220 μL. Following the 3 h incubation the medium was removed from the plate containing the cells and replaced with 200 μL of the solutions containing the compounds. The cells were incubated for a further 96 h before the assessment of growth inhibition using MTT.
(§4) The cells were left bathing in 100 μL of the saline solution to which was added 100 μL of MTT in saline (12 mM). Incubation was continued for 4 h at 37° C. to produce the blue formazan color which was quantified by optical density measurements at 570 nm. Background correction of all test wells was performed by subtraction of the yellow MTT solution color measured at 570 nm in cell-free wells. The data were normalized to solvent only control wells.

[2] = test system: rhabdomyosarcoma (RD) cells; assay: Assay for inhibition of cell proliferation (MTT), rhabdomyosarcoma cells; assay type: cell-based, human; conditions: for IC50: rhabdomyosarcoma (RD) cells, MTT, 96 h incubation; for RD Ratio (paclitaxel/compound): ratio of paclitaxel IC50 to compound IC50, RD cells
Description: as §1, §2, §3, §4

Compound	melting point [°C]	IC50 ([1]; Mus musculus, N1E-115) [nM]	N1E115 Ratio (paclitaxel/compound) [1]	IC50 ([2]; Homo sapiens) [nM]	RD Ratio (paclitaxel/compound) [2]	IC50 [1] [nM]	IC50 [2] [nM]
Cc1nc(-n2cccn2)c(=O)n(CC(C)C)c1-c1c(F)cccc1F [Compound 149, 5-Methyl-6-(2,6-difluorophenyl)-1-(2-methylpropyl)-3-(1H-pyrazol-1-yl)-2(1H)-pyrazinone]	105 to 106						
CC[C@H](C)Cn1c(-c2c(F)cc(F)cc2F)c(Cl)nc(-n2cccn2)c1=O [Compound 155, 5-Chloro-1-[(2S)-2-methylbutyl)-3-(1H-pyrazol-1-yl)-6-(2,4,6-trifluorophenyl)-2(1H)-pyrazinone]	112 to 113	75	1.17	20	0.85		
CCC(C)Cn1c(-c2ccc(F)cc2F)c(C)nc(C#N)c1=N (stereo not drawn) [Compound 471, 5-(2,4-Difluorophenyl)-3,4-dihydro-3-imino-6-methyl-4-(2-methylbutyl)pyrazinecarbonitrile]	73 to 77						
CC(C)Cn1c(-c2ccc(F)cc2Cl)c(Cl)nc(-n2cccn2)c1=O [Compound 53, 5-Chloro-6-(2-chloro-4-fluorophenyl)-1-(2-methylpropyl)-3-(1H-pyrazol-1-yl)-2(1H)-pyrazinone]	137 to 139	700	0.13	230	0.07		
COc1ccc(Cn2c(-c3c(F)cccc3F)c(Cl)nc(-n3cccn3)c2=O)cc1 [Compound 271, 5-Chloro-6-(2,6-difluorophenyl)-1-[(4-methoxyphenyl)methyl]-3-(1H-pyrazol-1-yl)-2(1H)-pyrazinone]	235 to 236						
CC(C)Cn1c(-c2c(F)cccc2F)c(Cl)nc(-c2cn(C)cn2)c1=O [Compound 85, 5-Chloro-6-(2,6-difluorophenyl)-1-(2-methylpropyl)-3-(1-methyl-1H-imidazol-4-yl)-2(1H)-pyrazinone]	191 to 193						
CC(C)Cn1c(-c2c(F)cccc2F)cnc(-n2cccn2)c1=O [Compound 342, 6-(2,6-Difluorophenyl)-1-(2-methylpropyl)-3-(1H-pyrazol-1-yl)-2(1H)-pyrazinone]	91 to 92						
CC(=O)O[C@H]1C(=O)[C@@]2(C)[C@H]([C@H](OC(=O)c3ccccc3)[C@]3(O)C[C@H](OC(=O)[C@H](O)[C@@H](NC(=O)c4ccccc4)c4ccccc4)C(C)=C1C3(C)C)[C@]1(OC(C)=O)CO[C@@H]1C[C@@H]2O [paclitaxel, reference compound]		88		17			
CC(C)Cn1c(-c2c(F)cccc2F)c(Cl)nc(-n2cncn2)c1=O [Compound 3]			0.11		0.01	790	3010
CC(Cn1c(-c2c(F)cc(OCCCN(C)C)cc2F)c(Cl)nc(-n2cccn2)c1=O)C(F)(F)F (stereo not drawn) [Compound 485, 5-chloro-6-[4-[3-(dimethylamino)propoxy]-2,6-difluorophenyl]-3-(1H-pyrazol-1-yl)-1-(3,3,3-trifluoro-2-methylpropyl)-2(1H)-pyrazinone]		151	0.58	27.5	0.62		
O=c1c(-n2cccn2)nc(Cl)c(-c2c(F)cc(F)cc2F)n1CC(F)(F)C(F)(F)F [Compound 468, 5-Chloro-1-(2,2,3,3,3-pentafluoropropyl)-3-(1H-pyrazol-1-yl)-6-(2,4,6-trifluorophenyl)-2(1H)-pyrazinone]	147 to 149						
CC[C@H](C)Cn1c(-c2c(F)cc(OCCN(C)C)cc2F)c(Cl)nc(C(N)=O)c1=O [Compound 484]			0.31		1.70	285	10
CCC(C)Cn1c(-c2c(F)cc(OCCN(C)C)cc2F)c(Cl)nc(-n2cccn2)c1=O (stereo not drawn) [Compound 479, 5-Chloro-6-[4-[2-(dimethylamino)ethoxy]-2,6-difluorophenyl]-1-(2-methylbutyl)-3-(1H-pyrazol-1-yl)-2(1H)-pyrazinone]		25	3.52	200	0.09		
CC(C)Cn1c(-c2c(F)cccc2F)c(Cl)nc(C#N)c1=O [Compound 5, 6-Chloro-5-(2,6-difluorophenyl)-3,4-dihydro-4-(2-methylpropyl)-3-oxopyrazinecarbonitrile]	100 to 102						
O=c1c(-n2cccn2)nc(Cl)c(-c2c(F)cccc2F)n1Cc1ccc(F)cc1 [Compound 272]			1.26		0.24	70	70
